# Measurements reported in the supplement of paper PMC6045584.
# ± gives the standard deviation of the averaged measurements.
# Experiments:
# [1] = compound: CCc1cc(Nc2nccc(-c3c(-c4ccc(OC)c(C(=O)Nc5c(F)cccc5F)c4)nc4ccccn34)n2)c(OC)cc1N1CCC(N2CCN(S(C)(=O)=O)CC2)CC1; assay: surviving fraction relative to DMSO-only wells; higher = less growth inhibition; conditions: exposure time: 5 days
# Summary of the method: (§1)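 Five days of continuous inhibitor exposure, at 0.5, 1, 5, 10, 50, 100, 500 and 1000 nM, followed a 24-hour period after log-phase tumour cell lines were seeded at 250–500 cells per well in 384-well plates. Surviving fraction was derived from CellTiter-Glo luminescence relative to the median of DMSO-only wells. Plates were read after 10 minutes at room temperature, and lines screened three times were kept only if replicate Pearson r >0.7 and median Z' >0.3.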
# [2] = compound: COc1ccc(-c2cc3c(C)nc(N)nc3n([C@H]3CC[C@H](OCCO)CC3)c2=O)cn1; assay: as above; conditions: exposure time: 5 days
# Summary of the method: as §1
Test System,surviving fraction ([1]; 0.5 nM),surviving fraction ([1]; 1 nM),surviving fraction ([1]; 5 nM),surviving fraction ([1]; 10 nM),surviving fraction ([1]; 50 nM),surviving fraction ([1]; 100 nM),surviving fraction ([1]; 500 nM),surviving fraction ([1]; 1000 nM),surviving fraction ([2]; 0.5 nM),surviving fraction ([2]; 1 nM),surviving fraction ([2]; 5 nM),surviving fraction ([2]; 10 nM),surviving fraction ([2]; 50 nM),surviving fraction ([2]; 100 nM),surviving fraction ([2]; 500 nM),surviving fraction ([2]; 1000 nM)
DU4475 BREAST,0.866 ± 0.12,0.937 ± 0.041,0.819 ± 0.072,1 ± 0.06,0.977 ± 0.28,0.832 ± 0.27,1.11 ± 0.34,1.19 ± 0.24,0.752 ± 0.16,0.767 ± 0.18,0.667 ± 0.25,0.639 ± 0.24,0.412 ± 0.074,0.301 ± 0.057,0.0443 ± 0.021,0.0323 ± 0.006
MHM BONE,0.97 ± 0.021,0.974 ± 0.032,1.03 ± 0.011,0.998 ± 0.011,1.027 ± 0.0053,1 ± 0.03,0.982 ± 0.055,0.975 ± 0.029,0.999 ± 0.011,0.967 ± 0.013,0.99 ± 0.012,0.957 ± 0.018,0.888 ± 0.029,0.823 ± 0.013,0.478 ± 0.015,0.29 ± 0.0046
HT1080 SOFT TISSUE,1.05 ± 0.037,1.05 ± 0.023,1.02 ± 0.0067,1.03 ± 0.031,1.05 ± 0.024,1.02 ± 0.038,0.9943 ± 0.0058,0.946 ± 0.034,1.02 ± 0.038,0.974 ± 0.029,1.001 ± 0.0067,0.955 ± 0.1,0.829 ± 0.012,0.661 ± 0.031,0.255 ± 0.015,0.161 ± 0.0072
MDAMB453 BREAST,1.02 ± 0.037,1.09 ± 0.12,1.14 ± 0.043,1.08 ± 0.054,1.12 ± 0.029,1.16 ± 0.031,1.02 ± 0.061,1.07 ± 0.086,1.08 ± 0.075,1.03 ± 0.078,1.05 ± 0.054,1.06 ± 0.069,0.603 ± 0.051,0.312 ± 0.047,0.0933 ± 0.0086,0.0587 ± 0.016
NOS1 BONE,1 ± 0.038,1.05 ± 0.051,1.16 ± 0.14,1.35 ± 0.26,1.22 ± 0.21,1.14 ± 0.12,1.12 ± 0.11,0.949 ± 0.043,1.13 ± 0.032,0.989 ± 0.13,1.2 ± 0.16,0.96 ± 0.1,0.6 ± 0.048,0.448 ± 0.029,0.158 ± 0.0032,0.095 ± 0.015
HOS BONE,1.008 ± 0.004,1.028 ± 0.0032,1.06 ± 0.018,1.05 ± 0.028,1.06 ± 0.026,1.047 ± 0.0083,0.956 ± 0.017,0.89 ± 0.014,0.992 ± 0.0078,0.983 ± 0.019,0.986 ± 0.012,0.906 ± 0.014,0.781 ± 0.021,0.618 ± 0.016,0.231 ± 0.012,0.178 ± 0.0092
CAL120 BREAST,0.944 ± 0.013,0.9663 ± 0.0055,0.968 ± 0.013,0.976 ± 0.032,0.976 ± 0.032,0.977 ± 0.024,0.944 ± 0.031,0.945 ± 0.021,0.942 ± 0.024,0.876 ± 0.034,0.9035 ± 0.0069,0.867 ± 0.025,0.674 ± 0.035,0.441 ± 0.019,0.113 ± 0.025,0.0817 ± 0.0065
MDAMB134 BREAST,1.21 ± 0.028,1.02 ± 0.034,0.988 ± 0.11,1.05 ± 0.13,1.03 ± 0.27,0.906 ± 0.12,0.882 ± 0.16,0.996 ± 0.18,0.973 ± 0.12,0.869 ± 0.11,0.864 ± 0.061,0.839 ± 0.19,0.639 ± 0.11,0.682 ± 0.064,0.361 ± 0.0042,0.293 ± 0.05
LNCAP PROSTATE,0.88 ± 0.064,0.964 ± 0.16,0.996 ± 0.08,0.849 ± 0.096,0.895 ± 0.15,0.93 ± 0.19,0.882 ± 0.063,0.632 ± 0.1,0.877 ± 0.095,0.872 ± 0.045,0.759 ± 0.026,0.622 ± 0.041,0.226 ± 0.024,0.099 ± 0.012,0.0437 ± 0.0051,0.035 ± 0.0044
LM7 BONE,0.918 ± 0.051,0.885 ± 0.043,0.997 ± 0.08,0.97 ± 0.074,1.1 ± 0.11,1.01 ± 0.081,0.898 ± 0.013,0.758 ± 0.03,0.996 ± 0.022,0.896 ± 0.031,0.947 ± 0.019,0.906 ± 0.057,0.691 ± 0.023,0.578 ± 0.022,0.205 ± 0.012,0.0677 ± 0.005
SG28 HEADNECK,1.01 ± 0.085,1.09 ± 0.099,1.04 ± 0.099,1.07 ± 0.082,1.1 ± 0.1,1.04 ± 0.041,1.22 ± 0.07,1.21 ± 0.061,1.042 ± 0.0068,1.033 ± 0.0092,0.998 ± 0.1,0.899 ± 0.058,0.691 ± 0.036,0.621 ± 0.057,0.3 ± 0.0047,0.242 ± 0.005
CME SYNOVIAL,1.4 ± 0.11,1.39 ± 0.21,1.39 ± 0.19,1.23 ± 0.05,1.36 ± 0.22,1.31 ± 0.089,0.913 ± 0.11,0.507 ± 0.034,1.01 ± 0.027,1.09 ± 0.2,1.04 ± 0.042,1.12 ± 0.045,0.743 ± 0.083,0.681 ± 0.051,0.252 ± 0.022,0.28 ± 0.019
MDAMB361 BREAST,0.885 ± 0.088,0.947 ± 0.053,1.04 ± 0.051,0.887 ± 0.052,0.879 ± 0.044,0.998 ± 0.045,0.826 ± 0.041,0.726 ± 0.064,0.905 ± 0.065,0.953 ± 0.1,0.852 ± 0.056,0.775 ± 0.096,0.78 ± 0.082,0.604 ± 0.026,0.248 ± 0.02,0.205 ± 0.028
HCC202 BREAST,1.11 ± 0.32,1.27 ± 0.15,1.21 ± 0.21,1.14 ± 0.17,1.4 ± 0.18,1.25 ± 0.13,1.14 ± 0.15,1.18 ± 0.05,1.18 ± 0.25,1.37 ± 0.17,0.947 ± 0.27,0.94 ± 0.21,0.635 ± 0.18,0.295 ± 0.047,0.0793 ± 0.018,0.048 ± 0.013
MCF7 BREAST,0.857 ± 0.036,0.905 ± 0.05,0.8677 ± 0.0068,0.874 ± 0.059,0.876 ± 0.013,0.897 ± 0.05,0.844 ± 0.027,0.769 ± 0.027,0.875 ± 0.029,0.851 ± 0.016,0.807 ± 0.027,0.764 ± 0.058,0.527 ± 0.0077,0.358 ± 0.0078,0.185 ± 0.0036,0.181 ± 0.0076
CAL72 BONE,1.06 ± 0.033,1.02 ± 0.026,1.03 ± 0.017,1.05 ± 0.025,1.08 ± 0.035,1.12 ± 0.032,1.13 ± 0.029,1.13 ± 0.033,1.09 ± 0.055,1.06 ± 0.043,1.04 ± 0.043,1.05 ± 0.027,0.993 ± 0.038,0.805 ± 0.045,0.235 ± 0.014,0.214 ± 0.031
HU09 BONE,0.897 ± 0.047,0.949 ± 0.12,1.08 ± 0.16,1.06 ± 0.032,1.03 ± 0.063,1.1 ± 0.048,0.88 ± 0.052,0.872 ± 0.085,0.936 ± 0.058,0.941 ± 0.057,0.779 ± 0.044,0.793 ± 0.078,0.346 ± 0.042,0.168 ± 0.015,0.0383 ± 0.0015,0.0237 ± 0.0015
JIMT1 BREAST,0.977 ± 0.04,1.01 ± 0.014,1.01 ± 0.011,1.02 ± 0.017,0.992 ± 0.032,1.04 ± 0.027,1 ± 0.031,0.986 ± 0.032,0.983 ± 0.03,0.961 ± 0.023,0.968 ± 0.011,0.937 ± 0.024,0.857 ± 0.021,0.606 ± 0.022,0.19 ± 0.0061,0.114 ± 0.013
SG31 HEADNECK,0.923 ± 0.036,1.08 ± 0.23,1.04 ± 0.2,0.903 ± 0.099,1.04 ± 0.14,1.14 ± 0.2,1.08 ± 0.26,1.1 ± 0.086,0.99 ± 0.13,0.942 ± 0.1,0.933 ± 0.08,0.766 ± 0.057,0.637 ± 0.036,0.463 ± 0.054,0.25 ± 0.014,0.162 ± 0.023
JURKAT HAEMATOPOIETIC AND LYMPHOID TISSUE,1.06 ± 0.011,1.07 ± 0.029,1.06 ± 0.027,1.07 ± 0.021,1.05 ± 0.022,1.01 ± 0.029,0.973 ± 0.034,0.886 ± 0.037,1.07 ± 0.026,1.09 ± 0.024,1.04 ± 0.021,1 ± 0.022,0.741 ± 0.017,0.57 ± 0.013,0.213 ± 0.011,0.135 ± 0.0042
